Four compounds from patent publication US5569649A, “Anti-inflammatory treatment method” (Phytopharm (NA) N.V., priority 1994, dated 1996) can be followed below.

Series [1] in a line: Rooperol metabolites in serum after oral hypoxoside (HPLC). Type of series: in vivo, human. As to conditions: for presence in serum (HPLC peak): 2 h after oral hypoxoside 1 g, one human volunteer. The method, then:
The analytical column (4.6×250 mm) was packed with end-capped C8-bonded silica of 5 μm regular particle size (Whatman, Maidstone, England), while a guard column (2.1×75 mm) was packed with pellicular C18-bonded silica (Whatman). An in-line extraction pre-column (2.1×30 mm) was packed with preparative grade C18-bonded silica, 40 μm particle size (Analytichem International, Harbor City, Calif.).
Operating conditions involved a linear solvent gradient programmed at a flow rate of 1.5 ml/min starting with mobile phase A (0.05M KH2 PO4) to which 10% mobile phase B (acetonitrile-isopropanol, 80:20 v/v) was added after 0.01 min. This mixture was maintained for 1 minute after which a linear gradient of mobile phases A and B was begun, ending at 70% B after 16 minutes. The column temperature was maintained at 50° C.
The in-line extraction pre-column was loaded with sample (dissolved in 50 μl ethanol or in up to 200 μl of mobile phase A in the case of purified compounds; or a 200 μl aliquot of serum or urine from a human subject) and made up to 500 μl with an aqueous solution containing 8M guanidinium chloride and 1M ammonium sulfate. Blood samples were first converted to sera prior to analysis. The extraction column was flushed before and after sample introduction with 500 μl of aqueous 0.5M ammonium sulfate. The solutes trapped on the in-line extraction column were then eluted onto the analytical column by mobile phase after column switching and initiation of the analysis.
The detector was programmed to monitor the eluant at 260 nm and also to record absorption spectra from 200-400 nm.

Series [2] is described as follows: Hypoxoside metabolites from urine after oral hypoxoside (HPLC). Type of series: in vivo, human. As to conditions: urine over 24 h after oral hypoxoside 1 g. The method, then:
Example 7 describes the characterization of the rooperol metabolites which were excreted in the urine of the same subject. Urine from the same volunteer as above was collected over 24 hours following administration of the hypoxoside. The collected sample was filtered and purified by passage through a column bed of C18-bonded silica.
The urine from the volunteer in Example 6 was collected over the first 24 hours following administration of hypoxoside and then processed as follows. C18-bonded silica sorbent material (200 g, 40 μm) was pre-treated with methanol and water via a column bed. Filtered urine (5 l) was passed through the sorbent bed, followed by elution in sequence with water (400 ml), aqueous methanol (10% v/v, 400 ml), aqueous methanol (30% v/v, 800 ml) and finally with methanol (400 ml) and water (400 ml). The aqueous methanol fraction (30% v/v, 800 ml) was diluted with water (1600 ml) and again passed through the sorbent bed which was then eluted with water (400 ml) and finally with methanol (400 ml). The final methanol solution was evaporated under vacuum at 50° C. to an aqueous residue which was lyophilized to yield 1 g of a mixture of hypoxoside metabolites and endogenous urine components.
A suitable volume of filtered aqueous solution of this residue (10 mg/ml) was injected onto the in-line pre-column of the analytical HPLC system (Example 5) such that 3 fractions designated A, B, and C having the same retention times as the corresponding peaks observed in serum (Example 6) were collected at the column outlet (see FIG. 4). These fractions were rendered free of mobile phase buffer salts by standard reverse phase sorption technique and lyophilized to dryness.

The nature of series [3]: Pharmacokinetics of hypoxoside metabolites, multiple-dose study. It counts as in vivo, human. As to conditions: 800 mg H. rooperii methanol-extract 3 times daily for 9 days. The method, then: In a random, multiple-dose study, 6 subjects received 800 mg of H. rooperii methanol-extract 3 times daily for 9 days, and blood samples were collected daily for 12 days (with the exception that no samples were collected on day 11).

Series [4] relates to TNF-α production by lipopolysaccharide-stimulated human peripheral blood mononuclear cells. In words: Inhibition of TNF-α production by LPS-stimulated human PBMCs (ELISA). Type of series: cell-based. The settings on record: for inhibition of TNF-α production, in words: LPS-stimulated human PBMCs, 1-10 μM rooperol. The method, then: (§1) In the study detailed in Example 4, cultured PBMCs enriched in monocytes were stimulated with lipopolysaccharide (20 μg/ml) in the presence and absence of rooperol at concentrations of 1-10 μM. After overnight incubation, the cells were collected and lysed, and the concentrations of TNF-α and IL-1β were measured by ELISA.
(§2) Peripheral blood mononuclear cells (PBMs) from normal human donors were separated on a Ficoll-Paque gradient and enriched in monocytes by adherence. PBMs were cultured in 12-well plates (2×10^6 cells/ml/well) in RPMI 1640 supplemented with 5% fetal calf serum.
(§3) Cultures were stimulated with lipopolysaccharide (LPS, 20 ug/ml), with or without rooperol at concentrations of 1, 2, 5, and 10 μM, and incubated overnight in 5% CO2. The cells were pelleted, resuspended in RPMI medium, and freeze-thawed five times to produce lysates. All samples were stored at -20° C. until cytokine concentrations were determined by commercial ELISA assays.
A general note: In an ELISA, binding on a coated surface is turned into a signal by an enzyme label.

Series [5] concerns IL-1β production by lipopolysaccharide-stimulated human peripheral blood mononuclear cells. Description: Inhibition of IL-1β production by LPS-stimulated human PBMCs (ELISA). It counts as cell-based. The settings on record: for inhibition of IL-1β production, in words: activated human mononuclear cells, 1-10 μM rooperol. How it is done:
as §1, §2, §3

A short description of series [6]: HPLC of fecal specimen after oral hypoxoside. It counts as in vivo, human. As to conditions: after oral hypoxoside 1 g. How it is done:
In addition, a fecal specimen was also obtained from the subject and, following extraction, was analyzed by HPLC as above (FIG. 5).

Series [7] is described as follows: Phase I dosing: hypoxoside and metabolites in serum. It counts as in vivo. The settings on record: oral hypoxoside preparation 1.6, 2.4 and 3.2 g, 20 human subjects. From the text:
In a Phase I dose-ranging and toxicity study, 20 human subjects were given oral doses of a hypoxoside preparation obtained by the methanol extraction procedure described in Example 1. The dosages were 1.6, 2.4, and 3.2 g. Following administration of the hypoxoside preparation, blood samples were collected periodically from the subjects for measurement of hypoxoside and its metabolites. The samples were converted to sera and processed as described in Example 5. The only hypoxoside/rooperol compounds detected were the sulfate and glucuronide metabolites of rooperol noted in Examples 6 and 7.

Series [8] in a line: Anti-inflammatory activity (general statement).
Series [9] is described as follows: Susceptibility to air oxidation. It counts as physicochemical.

Entries after “also recorded” stand apart in the source; their conditions may differ.

Take `O=C(O)[C@H]1O[C@@H](Oc2ccc(C#CC/C=C/c3ccc(O[C@@H]4O[C@H](C(=O)O)[C@@H](O)[C@H](O)[C@H]4O)c(O)c3)cc2O)[C@H](O)[C@@H](O)[C@@H]1O` [A, rooperol 4,4'-diglucuronide]: in [1], the “presence in serum (HPLC peak)” value is “appearance of three new peaks”. For the same compound, the “presence in urine (HPLC peak)” value in series [2] is recorded as “found in the urine sample”. Besides, the “relative abundance of metabolite in serum” value in [3] was “minor metabolites”.

With `O=S(=O)(O)Oc1ccc(C#CC/C=C/c2ccc(OS(=O)(=O)O)c(O)c2)cc1O` [C, rooperol 4,4'-disulfate], the “presence in serum (HPLC peak)” value in series [1] was “appearance of three new peaks”. In addition, the “presence in urine (HPLC peak)” value in series [2] was “found in the urine sample”. The “relative abundance of metabolite in serum” value in series [3] was “minor metabolites”.

For the compound `OC[C@H]1O[C@@H](Oc2ccc(C#CC/C=C/c3ccc(O[C@@H]4O[C@H](CO)[C@@H](O)[C@H](O)[C@H]4O)c(O)c3)cc2O)[C@H](O)[C@@H](O)[C@@H]1O` [hypoxoside], the “inhibition of TNF-α production, in words” value in [4] is “inactive”. Further, the “inhibition of IL-1β production, in words” value in series [5] is “inactive”. For the same compound, in series [1], the “presence in serum (HPLC peak)” value was “None of these peaks corresponded to rooperol or hypoxoside”. In [1] (oral hypoxoside, humans), the “toxicity of metabolites, in words” value is recorded as “metabolized to non-toxic derivatives” and the “uptake into the bloodstream” value is given as “taken up rapidly into the bloodstream”. Further, the “presence in urine (HPLC peak)” value in series [2] is “None of the other urinary peaks corresponded to rooperol or hypoxoside”. Besides, the “presence in fecal specimen (HPLC peak)” value in [6] is recorded as “No peaks were detectable”. In addition, the detection in serum result in series [7] is “Neither hypoxoside nor rooperol could be detected”.

Take `Oc1ccc(C#CC/C=C/c2ccc(O)c(O)c2)cc1O` [rooperol]: the “inhibition of TNF-α production” value in series [4] (10 μM rooperol, LPS 20 μg/ml) is “nearly complete inhibition”. For the same compound, the IC50 in series [4] (Homo sapiens, PBMC, LPS 20 μg/ml, overnight incubation, FIG. 2A, read-out: half-maximal inhibition of TNF-α production) lay in the range of 1000 to 2000 nM; in series [5] (Homo sapiens, PBMC, LPS 20 μg/ml, overnight incubation, FIG. 2B, read-out: half-maximal inhibition of IL-1β production) it was 1000 to 2000 nM. The “inhibition of TNF-α production, in words” value in [4] was “dose-dependent inhibition; also recorded: potent inhibitor”. Besides, the “inhibition of IL-1β production, in words” value in [5] is “dose-dependent inhibition; also recorded: potent inhibitor”. Further, the “presence in serum (HPLC peak)” value in [1] is “None of these peaks corresponded to rooperol or hypoxoside”. In addition, in series [2], the “presence in urine (HPLC peak)” value is reported as “None of the other urinary peaks corresponded to rooperol or hypoxoside”. In addition, the “presence in fecal specimen (HPLC peak)” value in series [6] is on record as “Only one major peak was observed, with a retention time corresponding to that of rooperol”. In addition, in series [7], the detection in serum entry is reported as “Neither hypoxoside nor rooperol could be detected”. In addition, in series [8], the anti-inflammatory activity result was “significant anti-inflammatory activity”. In addition, the “susceptibility to air oxidation” value in series [9] was “susceptible to air oxidation”.
